# In article PMC2680961, “Homologous desensitization of signalling by the alpha (α) isoform of the human thromboxane A2 receptor: A specific role for nitric oxide signalling” (Biochimica et Biophysica Acta, 2007):
# How the values were obtained:
# TPα^Δ336 = molecular target: T1, TPα^Δ336 (Homo sapiens, UniProt P21731); assay: Intracellular calcium mobilization, HEK.TPα^Δ336 cells; assay type: cell-based; conditions: for Δ[Ca2+]i, U46619-induced: HEK.TPα^Δ336
# T1 construct: expressed in transfected cells
# T1 sequence (P21731 1-335): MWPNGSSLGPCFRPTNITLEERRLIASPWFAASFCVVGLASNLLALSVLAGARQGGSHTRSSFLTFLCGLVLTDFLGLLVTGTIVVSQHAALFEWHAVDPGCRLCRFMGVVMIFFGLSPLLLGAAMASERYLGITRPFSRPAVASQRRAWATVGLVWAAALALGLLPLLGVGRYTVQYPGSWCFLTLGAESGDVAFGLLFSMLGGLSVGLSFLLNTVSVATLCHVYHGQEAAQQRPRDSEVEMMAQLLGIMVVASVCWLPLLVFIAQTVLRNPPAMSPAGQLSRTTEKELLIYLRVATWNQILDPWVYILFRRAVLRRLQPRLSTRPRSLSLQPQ
# Procedure: (§1) Measurement of intracellular calcium mobilization ([Ca^2+]i) in FURA2/AM preloaded HEK 293 cell lines (2 × 10^6 cells/dish), each transiently co-transfected with pADVA (10 μg), and pCMV:Gαq (25 μg), was carried out as previously described. To investigate the effect of GRK2/βARK1 on TP-mediated [Ca^2+]i mobilization, HEK.TPα or HEK.TPβ cells (2 × 10^6 cells/dish) were co-transfected with pADVA (10 μg), pCMV:Gαq (25 μg) along with pRK5:βARK1^495–689 (25 μg), encoding a dominant negative form of GRK2/βARK1[39]. Approximately 48 h post-transfection, cells were harvested by scraping, washed twice in ice-cold PBS and resuspended in HBSSHB (modified Ca^2+/Mg^2+-free Hank's buffered salt solution, containing 10 μM HEPES, pH 7.67, 0.1% bovine serum albumin (BSA)) buffer at 10^7 cells/ml and incubated in the dark with 5 μM FURA2/AM for 45 min at 37 °C. […] For each measurement of [Ca^2+]i mobilization, aliquots of cells were diluted to 0.825 × 10^6 cells/ml in HBSSHB, 1 mM CaCl2 and FURA2 fluorescence was recorded (2 ml aliquots of cells) at 37^ °C with gentle stirring with a Perkin Elmer-Cetus LS50-B spectrofluorometer at excitation wavelengths of 340 nm and 380 nm and emission wavelength of 510 nm, respectively.
# (§2) Cells were stimulated with the TP agonist U46619 (1 μM) and changes in [Ca^2+]i mobilization were monitored as a function of time. To assess agonist-mediated homologous desensitization, cells (0.825 × 10^6 cells/ml; 2 ml per assay) were stimulated with 1 μM U46619 (Primary stimulation) or, as a control, with the vehicle for 4 min; thereafter, cells were collected by centrifugation (900×g, 5 min); were washed twice in 2 ml HBSSHB, 1 mM CaCl2; and finally resuspended in 2 ml HBSSHB,1 mM CaCl2 and were left to recover over various time intervals (ranging from 0 to 60 min); thereafter, cells re-stimulated with 1 μM U46619 (Secondary stimulation) and changes in [Ca^2+]i mobilization were monitored as a function of time. […]
# TPα^T337A = molecular target: T2, TPα^T337A (Homo sapiens, UniProt P21731, T337A); assay: Intracellular calcium mobilization, HEK.TPα^T337A cells; assay type: cell-based; conditions: for Δ[Ca2+]i, U46619-induced: HEK.TPα^T337A
# T2 construct: expressed in transfected cells
# T2 sequence (P21731 1-343 T337A): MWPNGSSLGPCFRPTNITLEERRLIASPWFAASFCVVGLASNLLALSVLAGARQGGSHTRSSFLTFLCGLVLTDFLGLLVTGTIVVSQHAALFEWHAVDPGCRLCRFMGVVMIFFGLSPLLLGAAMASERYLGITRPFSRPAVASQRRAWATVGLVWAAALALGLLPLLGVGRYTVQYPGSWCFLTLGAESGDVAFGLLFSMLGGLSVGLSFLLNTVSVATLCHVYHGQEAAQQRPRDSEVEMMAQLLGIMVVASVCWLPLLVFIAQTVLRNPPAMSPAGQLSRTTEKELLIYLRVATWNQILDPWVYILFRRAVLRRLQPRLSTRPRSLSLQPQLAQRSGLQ
# Procedure: as §1, §2
# TPα^S145,S331,T337A = assay: Intracellular calcium mobilization, HEK.TPα^S145,S331,T337A cells; assay type: cell-based, human; conditions: data not shown
# Procedure: as §1, with “GRK2/βARK1[39].” for “GRK2/βARK1[39]. Approximately 48 h post-transfection, cells were harvested by scraping, washed twice in ice-cold PBS and resuspended in HBSSHB (modified Ca^2+/Mg^2+-free Hank's buffered salt solution, containing 10 μM HEPES, pH 7.67, 0.1% bovine serum albumin (BSA)) buffer at 10^7 cells/ml and incubated in the dark with 5 μM FURA2/AM for 45 min at 37 °C.”
# Cells were stimulated with the TP agonist U46619 (1 μM) and changes in [Ca^2+]i mobilization were monitored as a function of time. […]
# The vehicle had no effect on U46619-mediated [Ca^2+]i mobilization. Calibration of the signal was performed in each sample by adding 0.2% Triton X-100 to obtain the maximal fluorescence ratio (Rmax) and then 1 mM EGTA to obtain the minimal fluorescence ratio (Rmin). […]
# [1] = secondary 1 μM U46619 at 15 min
compound,measurement,setting,value
CCCCC[C@H](O)/C=C/[C@@H]1[C@@H](C/C=C\CCCC(=O)O)[C@H]2CO[C@@H]1C2 [U46619],"Δ[Ca2+]i, U46619-induced",TPα^Δ336; primary 1 μM U46619 4 min,240 ± 14 nM
same,"Δ[Ca2+]i, U46619-induced",TPα^Δ336; [1],50 ± 3.4 nM
same,secondary U46619 [Ca2+]i response relative to primary response,TPα^Δ336; TPα^Δ336,20%
same,"Δ[Ca2+]i, U46619-induced",TPα^T337A; primary 1 μM U46619 4 min,200 ± 9.2 nM
same,"Δ[Ca2+]i, U46619-induced",TPα^T337A; [1],49 ± 5 nM
same,secondary U46619 [Ca2+]i response relative to primary response,TPα^T337A; TPα^T337A,25%
same,secondary U46619 [Ca2+]i response relative to primary response,"TPα^S145,S331,T337A",55%
